In paper PMC4236894, “Salicylanilide Diethyl Phosphates as Potential Inhibitors of Some Mycobacterial Enzymes” (The Scientific World Journal, 2014):
Read-outs that look alike come from different tables or passages of the source.

Tests used:
[1] = biological target: T1, Lysine ε-aminotransferase (MtLAT) (Mycobacterium tuberculosis, UniProt P9WQ77); test: biochemical
T1 sequence (P9WQ77 1-449): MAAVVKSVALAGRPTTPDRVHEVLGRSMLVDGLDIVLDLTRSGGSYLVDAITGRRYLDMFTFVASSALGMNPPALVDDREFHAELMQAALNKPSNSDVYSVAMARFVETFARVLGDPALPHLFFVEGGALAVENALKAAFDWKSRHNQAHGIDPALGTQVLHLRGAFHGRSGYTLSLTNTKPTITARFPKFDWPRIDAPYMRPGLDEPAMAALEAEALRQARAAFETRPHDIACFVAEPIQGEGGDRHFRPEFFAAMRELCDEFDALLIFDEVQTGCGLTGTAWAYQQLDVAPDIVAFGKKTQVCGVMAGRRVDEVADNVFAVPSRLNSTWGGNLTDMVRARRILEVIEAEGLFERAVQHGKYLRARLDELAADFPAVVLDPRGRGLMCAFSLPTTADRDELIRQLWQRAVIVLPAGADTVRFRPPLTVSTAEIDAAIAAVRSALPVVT

[2] = biological target: Pantothenate synthetase (MtPS) (Mycobacterium tuberculosis, UniProt P9WIL5); test: Mycobacterial pantothenate synthetase (MtPS) screening; assay type: biochemical; settings: 50 μM compound
Description: Sixty microliters of the PS reagent mix was added, including NADH, pantoic acid, β-alanine, ATP, phosphoenolpyruvate, MgCl2, myokinase, pyruvate kinase, and lactate dehydrogenase in buffer, to each well of a 96-well plate. The compounds were then added to plates in 1 μL volumes. The reaction was initiated by the addition of 39 μL PS diluted in buffer. The final concentrations in the reaction were 0.4 mM NADH, 5 mM pantoic acid, 10 mM MgCl2, 5 mM β-alanine, 10 mM ATP, 1 mM potassium phosphoenolpyruvate, and 18 units/mL each of chicken muscle myokinase, rabbit muscle pyruvate kinase, and rabbit muscle lactate dehydrogenase diluted in 100 mM HEPES buffer (pH 7.8), 1% DMSO, and 5 μg/mL PS in a final volume of 100 μL. The test plate was immediately transferred to a microplate reader, and absorbance was measured at 340 nm every 12 sec for 120 sec. […] The per cent inhibition was calculated using the following formula: 100 ∗ 1 − compound rate − background rate/full reaction rate − background rate.

[3] = biological target: T2, Chorismate mutase (MtCM) (Mycobacterium tuberculosis, UniProt P9WIB9); test: biochemical
T2 sequence (P9WIB9 34-199): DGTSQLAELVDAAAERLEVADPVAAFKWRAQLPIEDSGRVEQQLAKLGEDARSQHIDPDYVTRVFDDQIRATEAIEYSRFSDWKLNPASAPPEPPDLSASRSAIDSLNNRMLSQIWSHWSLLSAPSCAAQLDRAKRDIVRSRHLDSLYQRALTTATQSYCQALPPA
Description: Reaction volumes of 0.4 mL of chorismate (typically 1 mM) in 50 mM Tris HCl (pH 7.5), 0.5 mM EDTA, 0.1 mg/mL bovine serum albumin, and 10 mM β-mercaptoethanol were incubated at 37°C for 5 min. […] The reaction was allowed to proceed at 37°C and was terminated after 1 to 5 min with 0.4 mL 1 M HCl. After a further incubation at 37°C for 10 min to convert prephenate, which is formed in the enzymatic reaction, to phenylpyruvate, 0.8 mL 2.5 M NaOH was added. The absorbance of the phenylpyruvate chromophore was read at 320 nm. We set up a blank with no enzyme for every reaction to account for the nonenzymatic conversion of chorismate to prephenate and added the enzyme after the addition of NaOH. […] A description of the methods can be found in the literature.

[4] = biological target: T3, L-alanine dehydrogenase (MtAlaDH) (Mycobacterium tuberculosis, UniProt P9WQB1); test: biochemical
T3 sequence (P9WQB1 1-371): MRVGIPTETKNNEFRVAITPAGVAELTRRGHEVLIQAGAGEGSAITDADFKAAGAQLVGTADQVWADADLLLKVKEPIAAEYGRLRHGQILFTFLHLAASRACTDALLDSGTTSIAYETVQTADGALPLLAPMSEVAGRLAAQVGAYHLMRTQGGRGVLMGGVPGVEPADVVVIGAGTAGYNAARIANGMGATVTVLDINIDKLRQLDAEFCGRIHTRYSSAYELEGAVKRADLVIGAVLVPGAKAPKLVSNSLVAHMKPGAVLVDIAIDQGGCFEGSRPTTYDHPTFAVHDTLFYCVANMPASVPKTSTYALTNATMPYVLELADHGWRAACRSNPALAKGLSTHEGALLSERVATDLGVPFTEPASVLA

[5] = biological target: mycobacterial isocitrate lyase (ICL) (Mycobacterium tuberculosis, UniProt P9WKK7); test: Isocitrate lyase assay (ICL1), glyoxylate phenyl hydrazone formation; assay type: biochemical; settings: read-out: % ICL inhibition at 10 μM (±standard deviation)
Description: Isocitrate lyase activity was assayed according to the protocol reported by Dixon and Kornberg (glyoxylate phenyl hydrazone formation) at 10 µM of the investigated compounds. […] A description of the method can be found in the literature.

[6] = system: Mtb H37Rv strain; settings: cited from earlier work

Sequence of mycobacterial isocitrate lyase (ICL) (P9WKK7 whole entry): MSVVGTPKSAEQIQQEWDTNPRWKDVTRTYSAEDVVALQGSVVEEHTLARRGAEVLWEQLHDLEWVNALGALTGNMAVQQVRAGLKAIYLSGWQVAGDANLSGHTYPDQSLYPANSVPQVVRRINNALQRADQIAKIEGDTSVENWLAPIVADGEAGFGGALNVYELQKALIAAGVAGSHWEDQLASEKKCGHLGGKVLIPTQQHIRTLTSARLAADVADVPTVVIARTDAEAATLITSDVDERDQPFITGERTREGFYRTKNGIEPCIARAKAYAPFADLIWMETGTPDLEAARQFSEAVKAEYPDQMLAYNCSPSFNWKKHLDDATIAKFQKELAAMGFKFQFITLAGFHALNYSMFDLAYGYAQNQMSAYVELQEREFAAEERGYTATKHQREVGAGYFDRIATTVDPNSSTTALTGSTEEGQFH
Sequence of Pantothenate synthetase (MtPS) (P9WIL5 whole entry, looked up): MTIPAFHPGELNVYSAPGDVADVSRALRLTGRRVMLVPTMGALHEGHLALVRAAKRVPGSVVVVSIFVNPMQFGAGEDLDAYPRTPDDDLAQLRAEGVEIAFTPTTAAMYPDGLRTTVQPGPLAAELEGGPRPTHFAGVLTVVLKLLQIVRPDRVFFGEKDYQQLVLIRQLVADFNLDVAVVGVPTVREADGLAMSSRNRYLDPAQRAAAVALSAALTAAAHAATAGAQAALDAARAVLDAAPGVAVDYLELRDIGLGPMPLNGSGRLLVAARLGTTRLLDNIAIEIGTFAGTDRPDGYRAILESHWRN

CCOP(=O)(OCC)Oc1cc(Cl)ccc1C(=O)Nc1cccc(Cl)c1 [1j]
% inhibition at 50 μM against MtLAT [1]: 29.30% | % inhibition at 50 μM against MtPS [2]: 3.64% | % inhibition at 50 μM against MtCM [3]: 54.56% | % inhibition at 50 μM against L-MtAlaDH [4]: 12.30% | IC50 [4]: > 50 µM

CCOP(=O)(OCC)Oc1cc(Cl)ccc1C(=O)Nc1ccc(C(F)(F)F)cc1 [1r]
% inhibition at 50 μM against MtLAT [1]: 23.18% | % inhibition at 50 μM against MtCM [3]: 50.05% | % inhibition at 50 μM against L-MtAlaDH [4]: 47.28% | IC50 [4]: > 50 µM

CCOP(=O)(OCC)Oc1cc(Cl)ccc1C(=O)Nc1cccc(Cl)c1 [1s, 5-Chloro-2-[(3-chlorophenyl)carbamoyl]phenyl diethyl phosphate]
inhibition at 10 µM [5]: 6 ± 0.83% | MICs against actively growing Mtb H37Rv strain [6]: 4 to 8 µM | inhibition at 50 µM ([1]; read-out: % inhibition at 50 μM against MtLAT, 50 μM compound): > 50% | inhibition at 50 µM ([2]; read-out: % inhibition at 50 μM against MtPS): 11.2% | inhibition at 50 µM ([3]; read-out: % inhibition at 50 μM against MtCM, 50 μM compound): > 60% | IC50 [4]: 4.96 µM | inhibition at 50 µM ([4]; read-out: % inhibition at 50 μM against L-MtAlaDH, 50 μM compound): > 70%

O=C(O)CC[N+](=O)[O-] [3-Nitropropionic acid, 3-nitropropionic acid]
inhibition at 10 µM ([5]; 10 μM compound): 25 ± 4.1%

NNC(=O)c1ccncc1 [Isoniazid]
inhibition at 10 µM ([5]; 10 μM compound): 0%
